Values after ≈ are worked out from the molar mass of the structure shown. Like-named read-outs stand apart in the source and are kept apart here. Starred links: 1 amine or outer side, 2 acyl side, 3 side chain; linkers in the order of their positions; H or OH if unused. Positions of bridges follow the written chain, without caps; N, C: chain ends. Non-standard residues stand in square brackets, D forms with d. Residues, ends and D or L forms follow the SMILES beside them. ξ: configuration not given here. Adda = CO[C@@H](Cc1ccccc1)[C@@H](C)/C=C(C)/C=C/[C@H](N[*:1])[C@H](C)C(=O)[*:2]; Trp(2-yl) = O=C([C@H](Cc1c([*:3])[nH]c2ccccc12)N[*:1])[*:2]; dAsp(3S-Me) = C[C@H](C(=O)[*:3])[C@@H](N[*:1])C(=O)[*:2]; ξTrp(2-yl) = O=C(C(Cc1c([*:3])[nH]c2ccccc12)N[*:1])[*:2]; Leu(4R-OH,5-OH) = C[C@](O)(CO)C[C@H](N)C(=O)O; d(γGlu) = O=C(O)[C@@H](CCC(=O)[*:2])N[*:1]; X1 = CC(O)(CO)CC(N[*:1])C(=O)[*:2]; cisHyp = O=C(O)[C@@H]1C[C@H](O)CN1; ξAsp(3ξ-OH) = NC(C(=O)O)C(O)C(=O)O; Hyp = O=C(O)[CH]1C[CH](O)CN1; NMeDha = C=C(NC)C(=O)O
Columns and labels:
[1] = system: mAb AMA9G3; type: binding, mouse; parameters: concentration at which test strips detect: unit not given here; settings: for CR (cross-reactivity): lateral flow test strips; for concentration giving complete inhibition of the signal: either hapten as test line
[2] = system: mAb 9C12.2; type: binding, mouse; settings: for competitive inhibition of mAb 9C12.2: cELISA, up to 1,000 ng/mL; for recognition by mAb 9C12.2: statement of deposit
[3] = system: mAb 9G3.2; type: binding, mouse; settings: for competitive inhibition of mAb 9G3.2: cELISA, up to 1,000 ng/mL; for recognition by mAb 9G3.2: statement of deposit
[4] = system: Previously described mAbs to amatoxins; settings: He et al; cited from earlier work
[5] = cross-reactivity with near neighbor compounds
[6] = mAb 9C12.2, (IC50 α-AMA)/(IC50 test inhibitor)×100
[7] = mAb 9C12.2, inhibitor mixed with antibody, PERI-AMA-BSA coated plate
[8] = mAb 9G3.2, (IC50 α-AMA)/(IC50 test inhibitor)×100
[9] = mAb 9G3.2, inhibitor mixed with antibody, PERI-AMA-BSA coated plate

Molecule	concentration at which test strips detect [1, 5]	CR (cross-reactivity) [1]	Cross reactivity [2, 6]	IC50 [2, 7]	Cross reactivity [3, 8]	IC50 [3, 9]	detection by test strips [1, 5]	concentration giving complete inhibition of the signal [1]	IC50 of previously described mAbs [4]	competitive inhibition of mAb 9C12.2 [2]	recognition by mAb 9C12.2 [2]	competitive inhibition of mAb 9G3.2 [3]	recognition by mAb 9G3.2 [3]	detection by test strips [1]	Cross reactivity [2]	IC50 [2]	Cross reactivity [3]	IC50 [3]
CC1NC(=O)C2CC(O)CN2C(=O)C2CSc3[nH]c4ccccc4c3CC(NC1=O)C(=O)NC(CC(C)(O)CO)C(=O)NC(C(C)C)C(=O)NC(C(O)C(=O)O)C(=O)N2 (stereo not drawn) [phallacidin] (cyclo([ξAsp(3ξ-OH)]C[Hyp]A[ξTrp(2-yl)][X1]V); thioether 2-5; configuration not given here)	200	0.005%	<0.3%	>1 µg/mL	<0.3%	>1 µg/mL	–	–	–	–	–	–	–	–	–	–	–	–
NCc1cc(=O)[nH]o1 [muscimol]	–	–	<0.3%	>1 µg/mL	<0.3%	>1 µg/mL	did not detect	–	–	–	–	–	–	–	–	–	–	–
CC[C@H](C)[C@@H]1NC(=O)CNC(=O)[C@@H]2Cc3c([nH]c4cc(O)ccc34)[S+]([O-])C[C@@H](NC(=O)CNC1=O)C(=O)N[C@@H](CC(N)=O)C(=O)N1C[C@H](O)C[C@H]1C(=O)N[C@@H]([C@@H](C)[C@@H](O)CO)C(=O)N2 (stereo in doubt) [α-amanitin]	–	–	100%	0.00266 ± 0.00018 µg/mL (≈ 0.00289 µM)	100%	0.00157 µg/mL (≈ 0.00171 µM)	–	10 ng/mL	0.066 µg/mL	competitively inhibited	recognizes	competitively inhibited	recognizes	–	–	–	–	–
C/C=C1/C(=O)N[C@@H](C(=O)O)[C@H](C)C(=O)N[C@@H](CCCNC(=N)N)C(=O)N[C@@H](/C=C/C(C)=C/[C@H](C)[C@H](Cc2ccccc2)OC)[C@H](C)C(=O)N[C@@H](C(=O)O)CCC(=O)N1C [nodularin]	–	–	–	–	–	–	–	–	–	–	–	–	–	did not detect	<0.3%	>1 µg/mL	<0.3%	>1 µg/mL
C=C1C(=O)N[C@H](C)C(=O)N[C@@H](CC(C)C)C(=O)N[C@@H](C(=O)O)[C@H](C)C(=O)N[C@@H](CCCNC(=N)N)C(=O)N[C@@H](/C=C/C(C)=C/[C@H](C)[C@H](Cc2ccccc2)OC)[C@H](C)C(=O)N[C@@H](C(=O)O)CCC(=O)N1C [microcystin-LR] (R[Adda][d(γGlu)][NMeDha][dA]L[dAsp(3S-Me)]-OH; lactam N-7)	–	–	–	–	–	–	–	–	–	–	–	–	–	did not detect	<0.3%	>1 µg/mL	<0.3%	>1 µg/mL
C[C@@H]1NC(=O)[C@H](C[C@@](C)(O)CO)NC(=O)[C@@H]2Cc3c([nH]c4ccccc34)SC[C@H](NC(=O)[C@@H]([C@H](C)O)NC1=O)C(=O)N1C[C@@H](O)C[C@H]1C(=O)N[C@@H](C)C(=O)N2 [phalloidin] (cyclo(A[dT]C[cisHyp]A[Trp(2-yl)][Leu(4R-OH,5-OH)]); thioether 3-6)	–	0.005%	<0.3%	>1 µg/mL	<0.3%	>1 µg/mL	–	–	–	–	–	–	–	–	–	–	–	–
β-amanitin	–	–	<0.3%	>1 µg/mL	6.5%	0.0242 ± 0.0062 µg/mL	–	–	–	no reduction in signal response	recognizes	competitively inhibited	recognizes	–	–	–	–	–
γ-amanitin	–	–	115%	0.0023 ± 0.00031 µg/mL	96%	0.00163 ± 0.00021 µg/mL	–	10 ng/mL	–	competitively inhibited	–	competitively inhibited	recognizes	–	–	–	–	–
N[C@H](C(=O)O)c1cc(=O)[nH]o1 [ibotenic acid]	–	–	<0.3%	>1 µg/mL	<0.3%	>1 µg/mL	did not detect	–	–	–	–	–	–	–	–	–	–	–
